Test [1] concerns Sclerotinia homoeocarpa. The test can be described thus: Radial growth of dollar spot fungus on amended Potato Dextrose Agar, dark vs light. The class given is cell-based.
Test [2] deals with Sclerotinia homoeocarpa. Briefly: Radial growth of dollar spot fungus after treatment of plugs in PBS (24 well plates), dark vs light. The class given is cell-based. The settings on record: for inhibition at 500 µM / inhibition at 1500 µM: Clarireedia homoeocarpa. As for the experimental part: In this example, control of dollar spot fungus (Sclerotinia homoeocarpa) with chlorins combined with a chelating agent was assessed. Treatments were prepared in Phosphate Buffered Saline (PBS) in 24 well plates (in duplicates for light vs. dark incubation) at desired concentrations. Then, a 5 mm diameter plug of a Sclerotinia homoeocarpa isolate (3 isolates total tested) was inoculated into the PBS and incubated at 21° C. in the dark for 2 hours. After 2 hours, one of the 24 well plates (with isolates in triplicate) is left in the dark and one 24 well plate is placed under illumination for 1 hour (all at 21° C.). Following illumination, fungal plugs are removed from PBS, blotted dry on sterile filter paper and transferred to non-amended Potato Dextrose Agar (PDA). Radial growth of the fungus is monitored daily until the growth of S. homoeocarpa reaches the edge of the Petri-dish. Illumination is provided by LED lights emitting about 1000 μmol/m^2/s photosynthetically active radiation (PAR). In this example, control of dollar spot fungus (Sclerotinia homoeocarpa) with Zinc Protoporphyrin IX (Zn-PPIX) combined with EDTA was assessed. Treatments were prepared in Phosphate Buffered Saline (PBS) in 24 well plates (in duplicates for light vs. dark incubation) at desired concentrations. Then, a 5 mm diameter plug of a Sclerotinia homoeocarpa isolate (3 isolates total tested) was inoculated into the PBS and incubated at 21° C. in the dark for 2 hours. After 2 hours, one of the 24 well plates (with isolates in triplicate) is left in the dark and one 24 well plate is placed under illumination for 1 hour (all at 21° C.). Following illumination, fungal plugs are removed from PBS, blotted dry on sterile filter paper and transferred to non-amended Potato Dextrose Agar (PDA). Radial growth of the fungus is monitored daily until the growth of S. homoeocarpa reaches the edge of the Petri-dish. Illumination is provided by LED lights emitting about 1000 μmol/m^2/s photosynthetically active radiation (PAR). In this example, control of dollar spot fungus (Sclerotinia homoeocarpa) with bacteriochlorin combined with EDTA was assessed. Treatments were prepared in Phosphate Buffered Saline (PBS) in 24 well plates (in duplicates for light vs. dark incubation) at desired concentrations. Then, a 5 mm diameter plug of a Sclerotinia homoeocarpa isolate (3 isolates total tested) was inoculated into the PBS and incubated at 21° C. in the dark for 2 hours. After 2 hours, one of the 24 well plates (with isolates in triplicate) is left in the dark and one 24 well plate is placed under illumination for 1 hour (all at 21° C.). Following illumination, fungal plugs are removed from PBS, blotted dry on sterile filter paper and transferred to non-amended Potato Dextrose Agar (PDA). Radial growth of the fungus is monitored daily until the growth of S. homoeocarpa reaches the edge of the Petri-dish. Illumination is provided by LED lights emitting about 1000 μmol/m^2/s photosynthetically active radiation (PAR). In this example, control of dollar spot fungus (Sclerotinia homoeocarpa) with Aluminum chlorin e6 combined with EDTA was assessed. Treatments were prepared in Phosphate Buffered Saline (PBS) in 24 well plates (in duplicates for light vs. dark incubation) at desired concentrations. Then, a 5 mm diameter plug of a Sclerotinia homoeocarpa isolate (3 isolates total tested) was inoculated into the PBS and incubated at 21° C. in the dark for 2 hours. After 2 hours, one of the 24 well plates (with isolates in triplicate) is left in the dark and one 24 well plate is placed under illumination for 1 hour (all at 21° C.). Following illumination, fungal plugs are removed from PBS, blotted dry on sterile filter paper and transferred to non-amended Potato Dextrose Agar (PDA). Radial growth of the fungus is monitored daily until the growth of S. homoeocarpa reaches the edge of the Petri-dish. Illumination is provided by LED lights emitting about 1000 μmol/m^2/s photosynthetically active radiation (PAR). […]

Setting [3] is: Table 17D, light, rate 31.62 μM.
The mark [4] stands for this setting: Table 17D, light, rate 316.2 μM.
[5] abbreviates: Table 22A, dark, rate 10 μM, growth between 48 and 72 hours.
The mark [6] stands for this setting: Table 22B, light, rate 10 μM, growth between 48 and 72 hours.
[7] abbreviates: Table 16B, light, Chlorin Rate 5 μM.
Setting [8] is: Table 16B, light, Chlorin Rate 10 μM.
[9] abbreviates: Table 16B, light, Chlorin Rate 31 μM.

As usually defined, the % Inhibition is the change of the read-out against control, counted positive when it falls. The inhibition is the change of the read-out against control, counted positive when it falls.

In the case of `C=Cc1c(C)c2cc3nc(c(CC(=O)O)c4[n-]c(cc5nc(cc1[n-]2)C(C)=C5CC)c(C)c4C(=O)O)C(CCC(=O)O)C3C.[Co+2]` (centres unmarked) [CoCe6, reference compound], the “% Inhibition” value with Sclerotinia homoeocarpa [1] (Table 17A, dark, rate 10 μM) is listed as 2.05%; in the test on Sclerotinia homoeocarpa [1] (Table 17A, dark, rate 31 μM), 4.92%; in the test on Sclerotinia homoeocarpa [1] (Table 17B, light, rate 10 μM) it was 3.0%; in the test with Sclerotinia homoeocarpa [1] (Table 17B, light, rate 31 μM), 3.9%. Moreover, the “Mean Radial Growth” value in the test on Sclerotinia homoeocarpa [1] (Table 17A, dark, rate 10 μM) amounted to 13.3 mm; in the test on Sclerotinia homoeocarpa [1] (Table 17A, dark, rate 31 μM) it was 12.9 mm; with Sclerotinia homoeocarpa [1] (Table 17B, light, rate 10 μM) it was 12.4 mm; in the test with Sclerotinia homoeocarpa [1] (Table 17B, light, rate 31 μM), 12.3 mm.
As to `C=Cc1c(C)c2cc3nc(c(CC(=O)[O-])c4[n-]c(cc5nc(cc1[n-]2)C(C)=C5CC)c(C)c4C(=O)[O-])C(CCC(=O)[O-])C3C.[Cu+2].[Na+].[Na+].[Na+]` (centres unmarked) [Cu Chlorophyllin (CuChln), Cu chlorophyllin, reference compound], the “% Inhibition” value in the test on Sclerotinia homoeocarpa [1] (Table 17C, dark, rate 31.62 μM) is −3.13%; with Sclerotinia homoeocarpa [1] (Table 17C, dark, rate 100 μM), −3.37%; with Sclerotinia homoeocarpa [1] (Table 17C, dark, rate 316.2 μM) it was −5.29%; in the test on Sclerotinia homoeocarpa [1] (Table 17C, dark, rate 1000 μM), −3.85%; in the test on Sclerotinia homoeocarpa [1] (setting [3]), −18.93%; with Sclerotinia homoeocarpa [1] (Table 17D, light, rate 100 μM), −20.34%. For the same compound, the “% Inhibition” value in the test with Sclerotinia homoeocarpa [1] (setting [4]) is given as −26.55%; in the test with Sclerotinia homoeocarpa [1] (Table 17D, light, rate 1000 μM), −28.81%. For the same compound, the “Mean Radial Growth” value is reported as 14.30 mm in the test with Sclerotinia homoeocarpa [1] (Table 17C, dark, rate 31.62 μM); 14.33 mm in the test on Sclerotinia homoeocarpa [1] (Table 17C, dark, rate 100 μM); 14.60 mm in the test on Sclerotinia homoeocarpa [1] (Table 17C, dark, rate 316.2 μM); 14.40 mm with Sclerotinia homoeocarpa [1] (Table 17C, dark, rate 1000 μM); 14.03 mm in the test on Sclerotinia homoeocarpa [1] (setting [3]); 14.20 mm in the test with Sclerotinia homoeocarpa [1] (Table 17D, light, rate 100 μM). Besides, the “Mean Radial Growth” value in the test on Sclerotinia homoeocarpa [1] (setting [4]) is 14.93 mm; with Sclerotinia homoeocarpa [1] (Table 17D, light, rate 1000 μM), 15.20 mm.
As to `CC1=C(CCC(=O)O)c2cc3[nH]c(cc4nc(cc5[nH]c(cc1n2)c(C(C)O)c5C)C(C(C)O)=C4C)c(C)c3CCC(=O)O.Cl.Cl` (centres unmarked) [Hematoporphyrin IX dichloride (HemIX), hematoporphyrin IX dichloride], the “% Inhibition” value with Sclerotinia homoeocarpa [2] (setting [5]) was −5.45%; in the test on Sclerotinia homoeocarpa [2] (setting [6]), 38.87%. The “Mean Radial Growth” value is reported as 15.06 mm with Sclerotinia homoeocarpa [2] (setting [5]) and 8.39 mm in the test with Sclerotinia homoeocarpa [2] (setting [6]).
Turning to `C=Cc1c(C)c2cc3nc(c(CC(=O)O)c4[n-]c(cc5nc(cc1[n-]2)C(C)=C5CC)c(C)c4C(=O)O)C(CCC(=O)O)C3C.[Pd+2]` (centres unmarked) [PdCe6], the “% Inhibition” value in the test with Sclerotinia homoeocarpa [1] (Table 16A, dark, rate 5 μM) was found to be 18.82%; in the test with Sclerotinia homoeocarpa [1] (Table 16A, dark, rate 10 μM), 36.47%; in the test with Sclerotinia homoeocarpa [1] (Table 16A, dark, rate 31 μM), 42.75%; in the test with Sclerotinia homoeocarpa [1] (setting [7]), 49.3%; in the test with Sclerotinia homoeocarpa [1] (setting [8]), 76.9%; in the test on Sclerotinia homoeocarpa [1] (setting [9]), 100.0%. In addition, the “Mean Radial Growth” value with Sclerotinia homoeocarpa [1] (Table 16A, dark, rate 5 μM) stood at 11.5 mm; in the test on Sclerotinia homoeocarpa [1] (Table 16A, dark, rate 10 μM) it was 9.0 mm; in the test with Sclerotinia homoeocarpa [1] (Table 16A, dark, rate 31 μM), 8.1 mm; with Sclerotinia homoeocarpa [1] (setting [7]) it was 6.2 mm; in the test with Sclerotinia homoeocarpa [1] (setting [8]), 2.8 mm; with Sclerotinia homoeocarpa [1] (setting [9]), 0 mm.
Consider `O=C(OC[C@H]1O[C@@H](OC(=O)c2cc(O)c(O)c(OC(=O)c3cc(O)c(O)c(O)c3)c2)[C@H](OC(=O)c2cc(O)c(O)c(OC(=O)c3cc(O)c(O)c(O)c3)c2)[C@@H](OC(=O)c2cc(O)c(O)c(OC(=O)c3cc(O)c(O)c(O)c3)c2)[C@@H]1OC(=O)c1cc(O)c(O)c(OC(=O)c2cc(O)c(O)c(O)c2)c1)c1cc(O)c(O)c(OC(=O)c2cc(O)c(O)c(O)c2)c1` [Tannic acid], for which the inhibition at 500 µM in the test with Sclerotinia homoeocarpa [2] (Table 25A, dark, rate 500 μM) was -6.25%; with Sclerotinia homoeocarpa [2] (Table 25B, light, rate 500 μM), -9.69%. Also, the inhibition at 1500 µM was 7.29% with Sclerotinia homoeocarpa [2] (Table 25A, dark, rate 1500 μM) and 16.3% in the test on Sclerotinia homoeocarpa [2] (Table 25B, light, rate 1500 μM). The “Mean Radial Growth” value came out at 11.33 mm with Sclerotinia homoeocarpa [2] (Table 25A, dark, rate 500 μM); 9.89 mm in the test with Sclerotinia homoeocarpa [2] (Table 25A, dark, rate 1500 μM); 11.94 mm in the test with Sclerotinia homoeocarpa [2] (Table 25B, light, rate 500 μM); 9.11 mm in the test with Sclerotinia homoeocarpa [2] (Table 25B, light, rate 1500 μM).
On to `C=CC1=C(C)c2cc3[n-]c(cc4[n-]c(cc5nc(cc1n2)C(C)=C5C=C)c(C)c4CCC(=O)O)c(CCC(=O)O)c3C.[Zn+2]` [Zn Protoporphyrin IX (PPIX), Zinc Protoporphyrin IX], for which, in the test on Sclerotinia homoeocarpa [2] (Table 19A, light, rate 10 μM), the “% Inhibition” value came out at 7.50% and the “Mean Radial Growth” value came out at 10.28 mm.
`C=Cc1c(C)c2cc3nc(c(CC(=O)O)c4[n-]c(cc5nc(cc1[n-]2)C(C)=C5CC)c(C)c4C(=O)O)C(CCC(=O)O)C3C.[Zn+2]` (centres unmarked) [ZnCe6]: the “% Inhibition” value in the test with Sclerotinia homoeocarpa [1] (Table 16A, dark, rate 5 μM) was found to be 2.47%; in the test with Sclerotinia homoeocarpa [1] (Table 16A, dark, rate 10 μM) it was 7.41%; with Sclerotinia homoeocarpa [1] (Table 16A, dark, rate 31 μM), 23.46%; with Sclerotinia homoeocarpa [1] (setting [7]), 10.4%; with Sclerotinia homoeocarpa [1] (setting [8]), 21.4%; in the test on Sclerotinia homoeocarpa [1] (setting [9]), 41.6%. In addition, the “Mean Radial Growth” value with Sclerotinia homoeocarpa [1] (Table 16A, dark, rate 5 μM) is 13.2 mm; in the test with Sclerotinia homoeocarpa [1] (Table 16A, dark, rate 10 μM), 12.5 mm; with Sclerotinia homoeocarpa [1] (Table 16A, dark, rate 31 μM) it was 10.3 mm; in the test on Sclerotinia homoeocarpa [1] (setting [7]), 11.5 mm; in the test with Sclerotinia homoeocarpa [1] (setting [8]), 10.1 mm; with Sclerotinia homoeocarpa [1] (setting [9]) it was 7.5 mm.
As to `C[n+]1ccc(-c2c3nc(c(-c4cc[n+](C)cc4)c4ccc([nH]4)c(-c4cc[n+](C)cc4)c4nc(c(-c5cc[n+](C)cc5)c5ccc2[nH]5)C=C4)C=C3)cc1.Cc1ccc(S(=O)(=O)[O-])cc1.Cc1ccc(S(=O)(=O)[O-])cc1.Cc1ccc(S(=O)(=O)[O-])cc1.Cc1ccc(S(=O)(=O)[O-])cc1` [meso-Tetra (N-methyl-4-pyridyl) porphine tetra tosylate], in the test on Sclerotinia homoeocarpa [2] (Table 31A, dark, rate 0.1 μM), the “% Inhibition” value turned out to be 4.17% and the “Mean Radial Growth” value was 14.06 mm. For the same compound, in the test with Sclerotinia homoeocarpa [2] (Table 31B, light, rate 0.1 μM), the “% Inhibition” value stood at 34.63% and the “Mean Radial Growth” value is listed as 8.39 mm.
As for Aluminum chlorin e6 [AlCe6], the “% Inhibition” value in the test on Sclerotinia homoeocarpa [1] (Table 16A, dark, rate 5 μM) is listed as 1.85%; in the test on Sclerotinia homoeocarpa [1] (Table 16A, dark, rate 10 μM), 3.70%; in the test on Sclerotinia homoeocarpa [1] (Table 16A, dark, rate 31 μM), 3.09%; in the test on Sclerotinia homoeocarpa [1] (setting [7]), 11.0%; in the test on Sclerotinia homoeocarpa [1] (setting [8]), 41.6%; in the test with Sclerotinia homoeocarpa [1] (setting [9]), 100.0%. Besides, the “% Inhibition” value is given as −4% in the test with Sclerotinia homoeocarpa [2] (Table 21A, dark, rate 1 μM); −5.33% in the test on Sclerotinia homoeocarpa [2] (Table 21A, dark, rate 10 μM); −2.18% in the test on Sclerotinia homoeocarpa [2] (Table 21B, light, rate 1 μM); 62.45% in the test with Sclerotinia homoeocarpa [2] (Table 21B, light, rate 10 μM). The “Mean Radial Growth” value in the test with Sclerotinia homoeocarpa [1] (Table 16A, dark, rate 5 μM) is on record as 13.8 mm; in the test on Sclerotinia homoeocarpa [1] (Table 16A, dark, rate 10 μM), 13.0 mm; in the test with Sclerotinia homoeocarpa [1] (Table 16A, dark, rate 31 μM) it was 13.1 mm; in the test on Sclerotinia homoeocarpa [1] (setting [7]) it was 11.4 mm; with Sclerotinia homoeocarpa [1] (setting [8]), 7.5 mm; in the test with Sclerotinia homoeocarpa [1] (setting [9]) it was 0.0 mm. Moreover, the “Mean Radial Growth” value was 13 mm in the test with Sclerotinia homoeocarpa [2] (Table 21A, dark, rate 1 μM); 13.17 mm with Sclerotinia homoeocarpa [2] (Table 21A, dark, rate 10 μM); 13 mm in the test with Sclerotinia homoeocarpa [2] (Table 21B, light, rate 1 μM); 4.78 mm in the test on Sclerotinia homoeocarpa [2] (Table 21B, light, rate 10 μM).
